Measurements as given in article PMC11982978, “Cancer hotspot mutations rewire ERK2 specificity by selective exclusion of docking interactions” (The Journal of Biological Chemistry, 2025).

Columns and labels:
WT ERK2 = conditions: selective conditions (-His); hits Z > 3; average of three screens; cited from earlier work
Excerpt: Supplement mmc2.xlsx, sheet "WT Hits" | column: Z-score

ERK2 E320K = test: Y2H D-site library screen, ERK2 E320K; assay type: cell-based, rat; parameters: key to ES, +His / ES, -His: ES = slope of ln(Ft/F0) vs number of yeast population doublings
Excerpt: (§1) To examine how cancer-associated CD site mutations affect the scope of ERK2 docking interactions, we adopted a Y2H strategy that we previously applied to define the D-site interactome of WT ERK2 ([15]). This system reports on interactions between ERK2 and a fragment of its substrate ELK1 that harbors a docking site essential for binding (Fig. 1C). The system thus evaluates the binding of potential sequences by substituting them for the native ELK1 docking site. We transformed Y2H strains with a bait plasmid expressing the Gal4 DNA-binding domain (DBD) fused to WT or CD mutant forms of rat ERK2 (R133K, D319N or E320K, equivalent respectively to human R135K, D321N and E322K), along with a prey plasmid expressing Gal4 activation domain (AD) fused to the ELK1 fragment harboring various docking site sequences. We then assayed these strains for growth on solid media under non-selective (+His) and selective conditions (−His) to detect interactions (Fig. 1D).
(§2) We previously used the Y2H system to screen WT ERK2 against a pooled library of 11,756 ELK1 variants incorporating potential docking sites from the human proteome ([15]). To identify interacting sequences either gained or lost upon ERK2 CD site mutation, we screened the same library against ERK2^D319N and ERK2^E320K. Yeast expressing ERK2 mutant bait plasmids were transformed with the ELK1 library pool and subjected to competitive growth under selective (−His) and non-selective conditions (+His) in parallel. Cultures were sampled periodically over ∼7 population doublings. The DNA sequence encoding the variable docking site region was PCR amplified and analyzed by next-generation sequencing (Fig. 2A, Dataset S1). The change in sequence abundance over time was fitted to an exponential function to assign an enrichment score (ES) to each docking site, where a higher ES indicates a greater increase in sequence abundance as the population grows. A significant enrichment of docking site sequences was observed only under selective conditions (Figs. 2B, S1). For each mutant, we observed generally good reproducibility across three independently conducted screens albeit with some sequences enriched in only a single replicate (Fig. S2, A and B). Average ES scores for the E320K and D319N mutant screens were better correlated with each other (R = 0.83) than were average ES scores for either mutant compared to WT ERK2 (R = 0.67 for WT versus D319N, R = 0.63 for WT versus E320K) (Fig. S2C).
(§3) To compare sequences selected by CD mutants with those selected by WT ERK2, we defined those sequences with an ES equal to or higher than three standard deviations from the mean (Z > 3) as hits. Using this cutoff, we obtained 121, 127, and 153 hits sequences from the WT, D319N, and E320K screens, respectively (Fig. 2C, Dataset S2).
(§4) Yeast harboring pGBT9-ERK2^E320K or pGBT9-ERK2^D319N were transformed with the pGADGH-ELK1 D-site library plasmid pool. Transformants (10–40 colonies per library component) were suspended in SD-Leu-Trp media, diluted to an OD600 of 0.1, and cultured in a shaking incubator at 30 °C to an OD600 of 1.0. The resulting culture was used to initiate a competitive selection screen. Cell growth, sample collection and data analysis were performed exactly as described previously for WT ERK2 ([15]). The frequency (F) of each D-site sequence at a given time point (t) was calculated by dividing the number of reads by the total read count for all sequences. For each sequence, a plot of ln(Ft/F0) as a function of the number of yeast population doublings was fit to a line, and the enrichment score (ES) for that sequence was defined as the slope of this line. Illumina sequencing reads, calculated ES, and Z scores for each screen are provided in Dataset S1.

ERK2 D319N = test: Y2H D-site library screen, ERK2 D319N; assay type: cell-based, rat; parameters: key to ES, +His / ES, -His: ES = slope of ln(Ft/F0) vs number of yeast population doublings
Excerpt: as §1, §2, §3, §4

[1] = Average of 3 Replicate Experiments, non-selective
[2] = Average of 3 Replicate Experiments, selective
[3] = Average of 3 Replicate Screens, non-selective
[4] = Average of 3 Replicate Screens, selective

For “IFQRQRVDALLLDL [MED6, D-site 14-mer in ELK1 Y2H prey]”, the “Z-score (ES) of hit sequences, WT ERK2 Y2H screen” value (“Z-score (ES) of hit sequences” for short) (WT ERK2) is given as 7.05.
In the case of “IPKNRIHHKLVLPS [CENPC, D-site 14-mer in ELK1 Y2H prey]”, the “Z-score (ES) of hit sequences” value (WT ERK2) is listed as 3.05.
In the case of “RKPRSPPRALVLPH [PEG10, D-site 14-mer in ELK1 Y2H prey]”, the “Z-score (ES) of hit sequences” value (WT ERK2) is given as 3.94.
In the case of “YKMKFFTKCVAFSK [LRP2BP, D-site 14-mer in ELK1 Y2H prey]”, the “Z-score (ES) of hit sequences” value (WT ERK2) is listed as 3.15.
In the case of “RKTKKKKSHLSLVG [ATXN7L3, D-site 14-mer in ELK1 Y2H prey]”, the “Z-score (ES) of hit sequences” value (WT ERK2) is given as 3.39.
In the case of “KGVKHRPPPIKLPS [SUPT20H, D-site 14-mer in ELK1 Y2H prey]”, the “Z-score (ES) of hit sequences” value (WT ERK2) is listed as 18.07.
For “SKGKKRNPGLKIPK [MAP2K6, D-site 14-mer in ELK1 Y2H prey]”, the “Z-score (ES) of hit sequences” value (WT ERK2) is listed as 8.58.
For “RLQSRKPPNLSITI [RHBDF2, D-site 14-mer in ELK1 Y2H prey]”, the “Z-score (ES) of hit sequences” value (WT ERK2) is given as 20.42.
For “QVPKKAWRKLKLPG [DCAF11, D-site 14-mer in ELK1 Y2H prey]”, the “Z-score (ES) of hit sequences” value (WT ERK2) is given as 5.07.
In the case of “TRQKHAKKHLGFFR [UTP23, D-site 14-mer in ELK1 Y2H prey]”, the “Z-score (ES) of hit sequences” value (WT ERK2) is given as 3.13.
For “CELPRRNCLLPFSN [NSD1, D-site 14-mer in ELK1 Y2H prey]”, the “Z-score (ES) of hit sequences” value (WT ERK2) is listed as 3.49.
In the case of “SLKKKIQPKLSLTL [JAZF1, D-site 14-mer in ELK1 Y2H prey]”, the “Z-score (ES) of hit sequences” value (WT ERK2) is listed as 5.24.
For “PDRKVKPAPLEIKP [GAB1, D-site 14-mer in ELK1 Y2H prey]”, the “Z-score (ES) of hit sequences” value (WT ERK2) is listed as 10.25.
In the case of “KKSRVPPPPILLSR [CFAP54, D-site 14-mer in ELK1 Y2H prey]”, the “Z-score (ES) of hit sequences” value (WT ERK2) is given as 11.93.
For “LRKKPDLSPLKLTI [TTC41P, D-site 14-mer in ELK1 Y2H prey]”, the “Z-score (ES) of hit sequences” value (WT ERK2) is listed as 5.81.
In the case of “GTRQVKNKGVIVKK [MEIKIN, D-site 14-mer in ELK1 Y2H prey]”, the “ES, +His” value (ERK2 E320K; [1]) is reported as -0.01644, the “Z-Score, +His” value (ERK2 E320K; [1]) is reported as -0.6905 and the “ES, -His” value (ERK2 E320K; [2]) is reported as -0.1045. The “Z-Score, -His” value (ERK2 E320K; [2]) was 0.2622, the “ES, +His” value (ERK2 E320K; Experiment 1, non-selective) was 0.02832 and the “ES, -His” value (ERK2 E320K; Experiment 1, selective) was -0.1559. For the same sequence, the “ES, +His” value (ERK2 E320K; Experiment 2, non-selective) was -0.03889, the “ES, -His” value (ERK2 E320K; Experiment 2, selective) was -0.03551 and the “ES, +His” value (ERK2 E320K; Experiment 3, non-selective) was -0.03876. For the same sequence, the “ES, -His” value (ERK2 E320K; Experiment 3, selective) was -0.1222, the “ES, +His” value (ERK2 D319N; [3]) was -0.02174 and the “Z-Score, +His” value (ERK2 D319N; [3]) was -0.8853. The “ES, -His” value (ERK2 D319N; [4]) was -0.1312, the “Z-Score, -His” value (ERK2 D319N; [4]) was -0.1438 and the “ES, +His” value (ERK2 D319N; Experiment 1, non-selective) was -0.02593. For the same sequence, the “ES, -His” value (ERK2 D319N; Experiment 1, selective) was -0.1282, the “ES, +His” value (ERK2 D319N; Experiment 2, non-selective) was -0.03529 and the “ES, -His” value (ERK2 D319N; Experiment 2, selective) was -0.1336. The “ES, +His” value (ERK2 D319N; Experiment 3, non-selective) was -0.004005 and the “ES, -His” value (ERK2 D319N; Experiment 3, selective) was -0.1318.
For “ITSKQRPRKLTLMG [MTOR, D-site 14-mer in ELK1 Y2H prey]”, the “Z-score (ES) of hit sequences” value (WT ERK2) is listed as 4.58.
For “NKSLKNQHGLTLQL [ZNF534, D-site 14-mer in ELK1 Y2H prey]”, the “Z-score (ES) of hit sequences” value (WT ERK2) is listed as 12.39.
In the case of “RKARRLEPGLLLPG [SOX18, D-site 14-mer in ELK1 Y2H prey]”, the “Z-score (ES) of hit sequences” value (WT ERK2) is listed as 7.78.
